Measured values reported in ChEMBL document CHEMBL3885881, “DrugMatrix”.

Species: Rattus norvegicus
Assay: DrugMatrix - Regimen: Daily Repeat
Format: toxicity, organism-based, Sprague-Dawley
Parameters: regimen Daily Repeat, gender Male, age 6-8 weeks
Conditions: in vivo, po, route oral GAVAGE, vehicle .5 % CMC; for ABSOLUTE BASOPHIL / ABSOLUTE EOSINOPHIL / ABSOLUTE LYMPHOCYTE / ABSOLUTE MONOCYTE / ABSOLUTE SEGMENTED NEUTROPHIL / BASOPHIL / EOSINOPHIL / ERYTHROCYTE COUNT / HEMATOCRIT / HEMOGLOBIN / LEUKOCYTE COUNT / LYMPHOCYTE / MEAN CORPUSCULAR HEMOGLOBIN / MEAN CORPUSCULAR HEMOGLOBIN CONCENTRATION / MEAN CORPUSCULAR VOLUME / MONOCYTE / NEUTROPHIL / NUCLEATED RED BLOOD CELLS / PLATELET COUNT: tissue Blood; for ALANINE AMINOTRANSFERASE / ALBUMIN / ALKALINE PHOSPHATASE / ASPARTATE AMINOTRANSFERASE / BLOOD UREA NITROGEN / CARBON DIOXIDE / CHLORIDE / CHOLESTEROL / CREATINE PHOSPHOKINASE / CREATININE / GLUCOSE / LACTATE DEHYDROGENASE / LIPASE / PHOSPHORUS / POTASSIUM / SODIUM / TOTAL BILIRUBIN / TOTAL PROTEIN / URIC ACID: tissue Plasma
[1] = 3 mg/kg, 120 h, dose level Low, time 5 day
[2] = 17 mg/kg, 72 h, dose level High, time 3 day
[3] = 17 mg/kg, 120 h, dose level High, time 5 day

COc1nc(C)nc(Cl)c1N=C1NCCN1 [MOXONIDINE]
ABSOLUTE BASOPHIL [1]: 0 CELLS/uL
ABSOLUTE EOSINOPHIL [1]: 0 CELLS/uL
ABSOLUTE LYMPHOCYTE [1]: 12936.33 CELLS/uL
ABSOLUTE MONOCYTE [1]: 47.33 CELLS/uL
ABSOLUTE SEGMENTED NEUTROPHIL [1]: 1849.67 CELLS/uL
BASOPHIL [1]: 0%
EOSINOPHIL [1]: 0%
ERYTHROCYTE COUNT [1]: 5.72 x10E6/uL
HEMATOCRIT [1]: 36.07%
HEMOGLOBIN [1]: 14.37 G/DL
LEUKOCYTE COUNT [1]: 14.83 x10E3/uL
LYMPHOCYTE [1]: 87%
MEAN CORPUSCULAR HEMOGLOBIN [1]: 25.13 pg
MEAN CORPUSCULAR HEMOGLOBIN CONCENTRATION [1]: 39.8 G/DL
MEAN CORPUSCULAR VOLUME [1]: 63.1 fL
MONOCYTE [1]: 0.33%
NEUTROPHIL [1]: 12.67%
NUCLEATED RED BLOOD CELLS [1]: 0.33 /100WBC
PLATELET COUNT [1]: 943.67 x10E3/uL
ALANINE AMINOTRANSFERASE [1]: 44.67 u/L
ALBUMIN [1]: 4.13 G/DL
ALKALINE PHOSPHATASE [1]: 346 u/L
ASPARTATE AMINOTRANSFERASE [1]: 83.67 u/L
BLOOD UREA NITROGEN [1]: 17.67 mg/dL
CARBON DIOXIDE [1]: 29.33 mmol/L
CHLORIDE [1]: 98 MEQ/L
CHOLESTEROL [1]: 69.67 mg/dL
CREATINE PHOSPHOKINASE [1]: 484.67 u/L
CREATININE [1]: 0.19 mg/dL
GLUCOSE [1]: 147 mg/dL
LACTATE DEHYDROGENASE [1]: 166.67 u/L
LIPASE [1]: 10 u/L
PHOSPHORUS [1]: 13.4 mg/dL
POTASSIUM [1]: 6.24 MEQ/L
SODIUM [1]: 145.27 MEQ/L
TOTAL BILIRUBIN [1]: 0.2 mg/dL
TOTAL PROTEIN [1]: 6.03 G/DL
URIC ACID [1]: 1.57 mg/dL
ABSOLUTE BASOPHIL [2]: 0 CELLS/uL
ABSOLUTE EOSINOPHIL [2]: 110.67 CELLS/uL
ABSOLUTE LYMPHOCYTE [2]: 13070 CELLS/uL
ABSOLUTE MONOCYTE [2]: 298.67 CELLS/uL
ABSOLUTE SEGMENTED NEUTROPHIL [2]: 1454 CELLS/uL
BASOPHIL [2]: 0%
EOSINOPHIL [2]: 0.67%
ERYTHROCYTE COUNT [2]: 6.02 x10E6/uL
HEMATOCRIT [2]: 36.53%
HEMOGLOBIN [2]: 14.5 G/DL
LEUKOCYTE COUNT [2]: 14.93 x10E3/uL
LYMPHOCYTE [2]: 87.33%
MEAN CORPUSCULAR HEMOGLOBIN [2]: 24.07 pg
MEAN CORPUSCULAR HEMOGLOBIN CONCENTRATION [2]: 39.67 G/DL
MEAN CORPUSCULAR VOLUME [2]: 60.63 fL
MONOCYTE [2]: 2%
NEUTROPHIL [2]: 10%
NUCLEATED RED BLOOD CELLS [2]: 0 /100WBC
PLATELET COUNT [2]: 1171.33 x10E3/uL
ALANINE AMINOTRANSFERASE [2]: 46.67 u/L
ALBUMIN [2]: 3.9 G/DL
ALKALINE PHOSPHATASE [2]: 274 u/L
ASPARTATE AMINOTRANSFERASE [2]: 131.67 u/L
BLOOD UREA NITROGEN [2]: 17.67 mg/dL
CARBON DIOXIDE [2]: 23.67 mmol/L
CHLORIDE [2]: 104 MEQ/L
CHOLESTEROL [2]: 63 mg/dL
CREATINE PHOSPHOKINASE [2]: 1708.67 u/L
CREATININE [2]: 0.17 mg/dL
GLUCOSE [2]: 146 mg/dL
LACTATE DEHYDROGENASE [2]: 536.33 u/L
LIPASE [2]: 8.67 u/L
PHOSPHORUS [2]: 9.2 mg/dL
POTASSIUM [2]: 5.68 MEQ/L
SODIUM [2]: 142.1 MEQ/L
TOTAL BILIRUBIN [2]: 0.17 mg/dL
TOTAL PROTEIN [2]: 5.43 G/DL
URIC ACID [2]: 1.53 mg/dL
ABSOLUTE BASOPHIL [3]: 0 CELLS/uL
ABSOLUTE EOSINOPHIL [3]: 74 CELLS/uL
ABSOLUTE LYMPHOCYTE [3]: 15545.33 CELLS/uL
ABSOLUTE MONOCYTE [3]: 52.33 CELLS/uL
ABSOLUTE SEGMENTED NEUTROPHIL [3]: 1961.67 CELLS/uL
BASOPHIL [3]: 0%
EOSINOPHIL [3]: 0.33%
ERYTHROCYTE COUNT [3]: 5.87 x10E6/uL
HEMATOCRIT [3]: 34.5%
HEMOGLOBIN [3]: 13.8 G/DL
LEUKOCYTE COUNT [3]: 17.63 x10E3/uL
LYMPHOCYTE [3]: 88.67%
MEAN CORPUSCULAR HEMOGLOBIN [3]: 23.5 pg
MEAN CORPUSCULAR HEMOGLOBIN CONCENTRATION [3]: 40 G/DL
MEAN CORPUSCULAR VOLUME [3]: 58.73 fL
MONOCYTE [3]: 0.33%
NEUTROPHIL [3]: 10.67%
NUCLEATED RED BLOOD CELLS [3]: 0.33 /100WBC
PLATELET COUNT [3]: 1240.33 x10E3/uL
ALANINE AMINOTRANSFERASE [3]: 48 u/L
ALBUMIN [3]: 3.97 G/DL
ALKALINE PHOSPHATASE [3]: 270.33 u/L
ASPARTATE AMINOTRANSFERASE [3]: 91.33 u/L
BLOOD UREA NITROGEN [3]: 23 mg/dL
CARBON DIOXIDE [3]: 25 mmol/L
CHLORIDE [3]: 104.67 MEQ/L
CHOLESTEROL [3]: 70.33 mg/dL
CREATINE PHOSPHOKINASE [3]: 333.33 u/L
CREATININE [3]: 0.21 mg/dL
GLUCOSE [3]: 128 mg/dL
LACTATE DEHYDROGENASE [3]: 169 u/L
LIPASE [3]: 9.67 u/L
PHOSPHORUS [3]: 10.3 mg/dL
POTASSIUM [3]: 5.89 MEQ/L
SODIUM [3]: 144.27 MEQ/L
TOTAL BILIRUBIN [3]: 0.17 mg/dL
TOTAL PROTEIN [3]: 5.67 G/DL
URIC ACID [3]: 1.43 mg/dL
